Results reported in patent US6583133B1, “Propenyl cephalosporin derivatives and process for the manufacture thereof” (Basilea Pharmaceutica AG, priority 1998, dated 2003).
In brackets after ≈: the same amount, converted by molar mass. Like-named read-outs stand apart in the source and are kept apart here.

What was measured:
S. aureus SPO-19 (MRSA) = assay: MIC against MRSA alone or in combination with imipenem or compound X, agar dilution; type: cell-based, Staphylococcus aureus; settings: inoculum 10^5 CFU/spot; for MIC: Staphylococcus aureus, MRSA
Excerpt: (§1) For example, the combination with carbapenem antibiotics such as imipenem, or with β-lactamase-inhibitors such as (Z)-(2S,3S,5R)-3-(2-cyanoethenyl)-3-methyl-4,4,7-trioxo-4-thia-1-aza-bicyclo[3.2.0]heptane-2-carboxylic acid (below named “compound X”), enhances the antibacterial activity of compounds I against highly resistant strains of Graem-positive bacterias, e.g. methicillin-resistant strains of Staphylococcus aureus.

S. aureus 42080 (MRSA) = assay: as above; type: cell-based, Staphylococcus aureus; settings: inoculum 10^5 CFU/spot; for MIC: Staphylococcus aureus, MRSA
Excerpt: as §1

S. pneumoniae 907 = assay: MIC, agar dilution method in Mueller Hinton agar; type: cell-based; settings: inoculum 10^4 CFU/spot
Experimental: (§2) Representative compounds of the present invention were tested. In vitro activity was determined by minimum inhibitory concentration in a microorganism spectrum by the agar dilution method in Mueller Hinton agar, inoculum=10^4 CFU/spot.

S. aureus 6538 (MSSA) = assay: MIC, agar dilution method in Mueller Hinton agar; type: cell-based; settings: inoculum 10^4 CFU/spot
Experimental: as §2

S. aureus 270A (MRSA) = assay: MIC, agar dilution method in Mueller Hinton agar; type: cell-based; settings: inoculum 10^4 CFU/spot
Experimental: as §2

E. faecalis 6 = assay: MIC, agar dilution method in Mueller Hinton agar; type: cell-based; settings: inoculum 10^4 CFU/spot
Experimental: as §2

[1] = in combination with Compound X (μg/ml, concentration not given)
[2] = in combination with Imipenem (4 μg/ml)
[3] = Streptococcus pneumoniae, read-out: MIC
[4] = Staphylococcus aureus, read-out: MIC
[5] = Enterococcus faecalis, read-out: MIC

Row | MIC (S. pneumoniae 907; [3]) | MIC (S. aureus 6538 (MSSA); [4]) | MIC (S. aureus 270A (MRSA); [4]) | MIC (E. faecalis 6; [5]) | MIC (S. pneumoniae 907) | MIC (S. aureus 6538 (MSSA)) | MIC (S. aureus 270A (MRSA)) | MIC (E. faecalis 6) | Molecule | other results
1 | < 0.1 µg/mL | < 0.1 µg/mL | 1 µg/mL (≈ 1.93 µM) | 0.5 µg/mL (≈ 0.966 µM) | – | – | – | – | O=C(CSc1ccc2ccccc2c1)N[C@@H]1C(=O)N2C(C(=O)[O-])=C(/C=C/C[n+]3ccccc3)CS[C@H]12 [Example 22, (E)-(6R,7R)-7-[2-(naphthalen-2-ylsulfanyl)-acetylamino]-8-oxo-3-(3-pyridin-1-ium-1-yl-propenyl)-5-thia-1-aza-bicyclo[4.2.0]oct-2-ene-2-carboxylate] | MIC (S. aureus SPO-19 (MRSA); compound alone): 4 µg/mL; MIC against MRSA (S. aureus SPO-19 (MRSA); [1]): 0.5 µg/mL; MIC against MRSA (S. aureus SPO-19 (MRSA); [2]): 1 µg/mL; MIC (S. aureus 42080 (MRSA); compound alone): 4 µg/mL; MIC against MRSA (S. aureus 42080 (MRSA); [1]): 1 µg/mL; MIC against MRSA (S. aureus 42080 (MRSA); [2]): 1 µg/mL
2 | < 0.1 µg/mL | < 0.1 µg/mL | 2 µg/mL (≈ 3.76 µM) | 1 µg/mL (≈ 1.88 µM) | – | – | – | – | Cc1cccc[n+]1C/C=C/C1=C(C(=O)[O-])N2C(=O)[C@@H](NC(=O)CSc3ccc4ccccc4c3)[C@H]2SC1 [Example 7, (E)-(6R,7R)-3-[3-(2-Methyl-pyridin-1-ium-1-yl)-propenyl]-7-[2-(naphthalen-2-ylsulfanyl)-acetylamino]-8-oxo-5-thia-1-aza-bicyclo[4.2.0]oct-2-ene-2-carboxylate] | –
3 | – | – | – | – | <0.1 µg/mL | <0.1 µg/mL | 2 µg/mL (≈ 3.82 µM) | 0.5 µg/mL (≈ 0.955 µM) | C[N+]1(C/C=C/C2=C(C(=O)[O-])N3C(=O)[C@@H](NC(=O)CSc4ccc5ccccc5c4)[C@H]3SC2)CCCC1 [Example 15] | –
4 | – | – | – | – | <0.1 µg/mL | <0.1 µg/mL | 2 µg/mL (≈ 3.75 µM) | 0.5 µg/mL (≈ 0.937 µM) | O=C(CSc1ccc2ccccc2c1)N[C@@H]1C(=O)N2C(C(=O)[O-])=C(/C=C/C[n+]3cccc(O)c3)CS[C@H]12 [Example 9, (E)-(6R,7R)-3-[3-(3-Hydroxy-pyridin-1-ium-1-yl)-propenyl]-7-[2-(naphtalen-2-ylsulfanyl)-acetylamino]-8-oxo-5-thia-1-aza-bicyclo[4.2.0]oct-2-ene-2-carboxylate] | –
5 | < 0.1 µg/mL | < 0.1 µg/mL | 2 µg/mL (≈ 3.81 µM) | 2 µg/mL (≈ 3.81 µM) | – | – | – | – | O=C(CSc1nc2ccccc2s1)N[C@@H]1C(=O)N2C(C(=O)[O-])=C(/C=C/C[n+]3ccccc3)CS[C@H]12 [Example 2, (E)-(6R,7R)-7-[2-(benzothiazol-2-ylsulfanyl)-acetylamino]-8-oxo-3-(3-pyridin-1-ium-1-yl-propenyl)-5-thia-1-aza-bicyclo[4.2.0]oct-2-ene-2-carboxylate] | –
6 | < 0.1 µg/mL | < 0.1 µg/mL | 1 µg/mL (≈ 1.76 µM) | 0.25 µg/mL (≈ 0.44 µM) | – | – | – | – | O=C(CSc1ccc2ccccc2c1)N[C@@H]1C(=O)N2C(C(=O)[O-])=C(/C=C/C[n+]3cccc4ccccc43)CS[C@H]12 [Example 13, (E)-(6R,7R)-7-[2-(Naphthalen-2-ylsulfanyl)-acetylamino]-8-oxo-3-(3-quinolin-1-ium-1-yl-propenyl)-5-thia-1-aza-bicyclo[4.2.0]oct-2-ene-2-carboxylate] | –
7 | – | – | – | – | <0.1 µg/mL | <0.1 µg/mL | 4 µg/mL (≈ 7.48 µM) | 1 µg/mL (≈ 1.87 µM) | C[N+](C)(C/C=C/C1=C(C(=O)[O-])N2C(=O)[C@@H](NC(=O)CSc3nc4ccccc4s3)[C@H]2SC1)CCO [Example 41, (E)-(6R,7R)-3-[3-[Dimethyl-(2-hydroxy-ethyl)-ammonio]-propenyl]-7-[2-(benzothiazol-2-ylsulfanyl)-acetylamino]-8-oxo-5-thias1-aza-bicyclo[4.2.0]oct-2-ene-2-carboxylate] | –
8 | – | – | – | – | – | – | – | – | C[C@@H](O)[C@H]1C(=O)N2C(C(=O)O)=C(SCCN=CN)C[C@H]12 [Imipenem, imipenem, reference compound] | MIC (S. aureus SPO-19 (MRSA); compound alone): > 16 µg/mL; MIC (S. aureus 42080 (MRSA); compound alone): > 16 µg/mL
9 | – | – | – | – | <0.1 µg/mL | <0.1 µg/mL | 2 µg/mL (≈ 3.42 µM) | 4 µg/mL (≈ 6.84 µM) | C[N+](C)(C/C=C/C1=C(C(=O)[O-])N2C(=O)[C@@H](NC(=O)CSc3ccc4cc(C(=O)O)ccc4c3)[C@H]2SC1)CC(N)=O [Example 99] | –
10 | – | – | – | – | <0.1 µg/mL | <0.1 µg/mL | 1 µg/mL (≈ 1.85 µM) | 0.5 µg/mL (≈ 0.925 µM) | C[N+](C)(C/C=C/C1=C(C(=O)[O-])N2C(=O)[C@@H](NC(=O)CSc3ccc4ccccc4c3)[C@H]2SC1)CC(N)=O [Example 19, (E)-(6R,7R)-3-[3-(Carbamoylmethyl-dimethyl-ammonio)-propenyl]-7-[2-(naphtalen-2-ylsulfanyl)-acetylamino]-8-oxo-5-thia-1-aza-bicyclo[4.2.0]oct-2-ene-2-carboxylate] | –
11 | < 0.1 µg/mL | < 0.1 µg/mL | 2 µg/mL (≈ 3.54 µM) | 1 µg/mL (≈ 1.77 µM) | – | – | – | – | C[N+](C)(C/C=C/C1=C(C(=O)[O-])N2C(=O)[C@@H](NC(=O)CSc3nc4ccccc4s3)[C@H]2SC1)C(CO)CO [Example 67, (E)-(6R,7R)-7-[2-(Benzothiazol-2-ylsulfanyl)-acetylamino]-8-oxo-3-[3-[(2-hydroxy-1-hydroxymethyl-ethyl)-dimethyl-ammonio]-propenyl]-5-thia-1-aza-bicyclo[4.2.0]oct-2-ene-2-carboxylate] | –
12 | < 0.1 µg/mL | < 0.1 µg/mL | 2 µg/mL (≈ 3.63 µM) | 2 µg/mL (≈ 3.63 µM) | – | – | – | – | O=C(CSc1ccc2ccccc2c1)N[C@@H]1C(=O)N2C(C(=O)[O-])=C(/C=C/C[N+]34CCN(CC3)CC4)CS[C@H]12 [Example 59, (E)-(6R,7R)-3-[3-(4-Aza-1-azonia-bicyclo[2,2,2]octan-1-yl)-propenyl]-7-[2-(naphthalen-2-ylsulfanyl)-acetylamino]-8-oxo-5-thia-1-aza-bicyclo[4.2.0]oct-2-ene-2-carboxylate] | MIC (S. aureus SPO-19 (MRSA); compound alone): 4 µg/mL; MIC against MRSA (S. aureus SPO-19 (MRSA); [2]): 1 µg/mL; MIC (S. aureus 42080 (MRSA); compound alone): 4 µg/mL; MIC against MRSA (S. aureus 42080 (MRSA); [2]): 2 µg/mL
13 | < 0.1 µg/mL | < 0.1 µg/mL | 2 µg/mL (≈ 3.69 µM) | 1 µg/mL (≈ 1.85 µM) | – | – | – | – | C[N+](C)(C/C=C/C1=C(C(=O)[O-])N2C(=O)[C@@H](NC(=O)CSc3ccc4ccccc4c3)[C@H]2SC1)CCCO [Example 62, (E)-(6R,7R)-3-[3-[(3-Hydroxy-propyl)-dimethyl-ammonio]-propenyl]-7-[2-(naphthalen-2-ylsulfanyl)-acetylamino]-8-oxo-5-thia-1-aza-bicyclo[4.2.0]oct-2-ene-2-carboxylate] | MIC (S. aureus SPO-19 (MRSA); compound alone): 2 µg/mL; MIC against MRSA (S. aureus SPO-19 (MRSA); [2]): 1 µg/mL; MIC (S. aureus 42080 (MRSA); compound alone): 4 µg/mL; MIC against MRSA (S. aureus 42080 (MRSA); [2]): 2 µg/mL

Row | Molecule | MIC (S. pneumoniae 907; [3]) | MIC (S. aureus 6538 (MSSA); [4]) | MIC (S. aureus 270A (MRSA); [4]) | MIC (E. faecalis 6; [5]) | MIC (S. pneumoniae 907) | MIC (S. aureus 6538 (MSSA)) | MIC (S. aureus 270A (MRSA)) | MIC (E. faecalis 6) | other results
14 | (E)-(6R,7R)-8-Oxo-3-(3-pyridin-1-ium-1-yl-propenyl)-7-[2-(2,4,5-trichlorophenylsulfanyl)-acetylamino]-5-thia-1-aza-bicyclo[4.2.0]oct-2-ene-2-carboxylate [Example 6] | – | – | – | – | <0.1 µg/mL | <0.1 µg/mL | 1 µg/mL | 0.25 µg/mL | MIC against MRSA (S. aureus SPO-19 (MRSA); compound alone): 4 µg/mL; MIC against MRSA (S. aureus SPO-19 (MRSA); [2]): 0.5 µg/mL; MIC against MRSA (S. aureus 42080 (MRSA); compound alone): 8 µg/mL; MIC against MRSA (S. aureus 42080 (MRSA); [2]): 1 µg/mL
